Among the data in ChEMBL document CHEMBL1795287, “Efficient synthesis of 3-O-thia-cPA and preliminary analysis of its biological activity toward autotaxin” (Bioorg Med Chem Lett, 2011) are inhibition values, retold here.

The target in assay [1] is Autotaxin (Homo sapiens) (UniProt Q13822). Briefly: Inhibition of human ATX catalytic activity in MDA-MB-231 cells using conditioned medium. The class given is cell-based.
The target is the same in assay [2]. Briefly: Inhibition of human ATX catalytic activity in MDA-MB-231 cells using conditioned medium at 10 uM. The format is cell-based.

Broadly, the inhibition is the share of the control response that was lost under treatment. On to `CCCCCCCCCCCCCCCCCC(=O)OCC1CSP(=O)(O)O1` (racemic), for which the inhibition result on Autotaxin (Homo sapiens) [1] was “Dose-dependent effect”; against Autotaxin (Homo sapiens) [2] it was 55%.
`CCCCCC/C=C\CCCCCCCC(=O)OCC1CSP(=O)(O)O1` (racemic): the inhibition entry is “Dose-dependent effect” at Autotaxin (Homo sapiens) [1] and 55% against Autotaxin (Homo sapiens) [2].
The corresponding values for `CCCCCCCCCCCCCCCC(=O)OCC1CSP(=O)(O)O1` (racemic) are “Dose-dependent effect” and 55%.
With `CCCCCC/C=C\CCCCCCCC(=O)OCC1COP(=O)(O)C1` (stereo not given), the inhibition against Autotaxin (Homo sapiens) [2] amounted to 66%.
As to `CCCCCCCC/C=C\CCCCCCCC(=O)OCC1CSP(=O)(O)O1` (racemic), the inhibition result at Autotaxin (Homo sapiens) [1] was “Dose-dependent effect”; against Autotaxin (Homo sapiens) [2], 55%.
Turning to `CCCCCCCC/C=C\CCCCCCCC(=O)OCC1COP(=O)(O)O1` (stereo not given), the inhibition on Autotaxin (Homo sapiens) [2] was found to be 25%.
